Results published in ChEMBL document CHEMBL5678807, “A selective jumonji H3K27 demethylase inhibitor modulates the proinflammatory macrophage response” (Nature, 2012).

Tests used:
Histone deacetylase 9 = Histone deacetylase 9 (Homo sapiens, UniProt Q9UKV0); assay: Inhibition of human HDAC9 by FLINT assay
[1] = target: Acetylcholine receptor subunit alpha (Homo sapiens, UniProt P02708); assay: Agonist activity at human alpha 1 nAChR by intracellular Ca fluorescence assay; format: cell-based
[2] = target: T1, Muscarinic acetylcholine receptor M2 (Homo sapiens, UniProt P08172); assay: Antagonist activity at human CHRM2 by intracellular Ca fluorescence assay; format: functional, cell-based
T1 sequence (P08172 whole entry): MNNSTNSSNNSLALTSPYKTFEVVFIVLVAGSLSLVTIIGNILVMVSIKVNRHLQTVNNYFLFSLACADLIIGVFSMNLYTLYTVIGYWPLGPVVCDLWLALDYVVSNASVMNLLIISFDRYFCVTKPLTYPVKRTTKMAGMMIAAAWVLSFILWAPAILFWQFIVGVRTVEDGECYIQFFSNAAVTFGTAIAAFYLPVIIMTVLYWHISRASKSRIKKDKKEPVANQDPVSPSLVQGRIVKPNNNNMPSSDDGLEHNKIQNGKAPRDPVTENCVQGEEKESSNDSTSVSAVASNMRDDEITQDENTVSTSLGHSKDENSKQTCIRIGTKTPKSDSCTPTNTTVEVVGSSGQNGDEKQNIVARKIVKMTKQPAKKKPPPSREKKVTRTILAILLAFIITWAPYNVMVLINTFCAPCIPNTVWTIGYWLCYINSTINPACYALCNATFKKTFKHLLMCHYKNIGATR

Prolyl hydroxylase EGLN3 = Prolyl hydroxylase EGLN3 (Homo sapiens, UniProt Q9H6Z9); assay: Inhibition of human EGLN3 by TR-FRET assay
[3] = target: Alpha-2C adrenergic receptor (Homo sapiens, UniProt P18825); assay: Agonist activity at human alpha 2C adrenoceptor by TR-FRET assay
[4] = target: 3',5'-cyclic-AMP phosphodiesterase 4B (Homo sapiens, UniProt Q07343); assay: Inhibition of human PDE4B by luminescence assay
Histone deacetylase 11 = Histone deacetylase 11 (Homo sapiens, UniProt Q96DB2); assay: Inhibition of human HDAC11 by FLINT assay
Mu-type opioid receptor = Mu-type opioid receptor (Homo sapiens, UniProt P35372); assay: Agonist activity at human OPRM-1 by SPA; format: functional
Adenosine receptor A2a = Adenosine receptor A2a (Homo sapiens, UniProt P29274); assay: Agonist activity at human adenosine A2a by TR-FRET assay; format: functional
Substance-P receptor = Substance-P receptor (Homo sapiens, UniProt P25103); assay: Antagonist activity at human NK-1 by intracellular Ca luminescence assay; format: functional, cell-based
OATP1B1 (SLCO1B1) = OATP1B1 (SLCO1B1) (Homo sapiens, UniProt Q9Y6L6); assay: Blockade of human OATP1B1 by imaging analysis
[5] = Antagonist activity at human NR1A/NR2B by intracellular Ca fluorescence assay; format: cell-based
[6] = target: Lysine-specific demethylase 4D (Homo sapiens, UniProt Q6B0I6); assay: Inhibition of human JmjD2d using H3K27(me3) as substrate preincubated for 10 mins followed by substrate addition and measured after 7 mins in presence of alpha-KG by RapidFire Mass Spectrometry
[7] = target: Voltage-dependent L-type calcium channel subunit alpha-1C (Homo sapiens, UniProt Q13936); assay: Antagonist activity at human CaV1.2 (L-type) by intracellular Ca fluorescence assay; format: cell-based
[8] = target: Polyamine deacetylase HDAC10 (Homo sapiens, UniProt Q969S8); assay: Inhibition of human HDAC10 by FLINT assay
[9] = target: Amine oxidase [flavin-containing] B (Homo sapiens, UniProt P27338); assay: Inhibition of human MAOB by FLINT assay
[10] = target: 5-hydroxytryptamine receptor 1B (Homo sapiens, UniProt P28222); assay: Agonist activity at human 5-HT1B by SPA; format: functional
hERG (KCNH2) = hERG (KCNH2) (Homo sapiens, UniProt Q12809); assay: Binding affinity to human ERG by FP binding assay; format: toxicity
[11] = target: Lysine-specific demethylase 4C (Homo sapiens, UniProt Q9H3R0); assay: Inhibition of human JmjD2c using H3K27(me3) as substrate preincubated for 10 mins followed by substrate addition and measured after 7 mins in presence of alpha-KG by RapidFire Mass Spectrometry
Macrophage [12] = assay: Antiinflammatory activity in human primary macrophages assessed as effect on LPS-induced TNFSF12 gene expression at 30 uM measured after 2 hrs by RT-PCR array (reference value: 12514 a.u.); format: functional
Macrophage [13] = assay: Antiinflammatory activity in human primary macrophages assessed as effect on LPS-induced IL7 gene expression at 30 uM measured after 2 hrs by RT-PCR array (reference value: 60083 a.u.); format: functional
Macrophage [14] = assay: Antiinflammatory activity in human primary macrophages assessed as effect on LPS-induced IL1F5 gene expression at 30 uM measured after 2 hrs by RT-PCR array (reference value: 2464 a.u.); format: functional
Macrophage [15] = assay: Antiinflammatory activity in human primary macrophages assessed as effect on LPS-induced CSF2 gene expression at 30 uM measured after 2 hrs by RT-PCR array (reference value: 248134 a.u.); format: functional
Macrophage [16] = assay: Antiinflammatory activity in human primary macrophages assessed as effect on LPS-induced IL18 gene expression at 30 uM measured after 2 hrs by RT-PCR array (reference value: 153374 a.u.); format: functional
Macrophage [17] = assay: Antiinflammatory activity in human primary macrophages assessed as effect on LPS-induced IL1F7 gene expression at 30 uM measured after 2 hrs by RT-PCR array (reference value: 192 a.u.); format: functional
Macrophage [18] = assay: Antiinflammatory activity in human primary macrophages assessed as effect on LPS-induced IL6 gene expression at 30 uM measured after 2 hrs by RT-PCR array (reference value: 3511720 a.u.); format: functional
Macrophage [19] = assay: Antiinflammatory activity in human primary macrophages assessed as effect on LPS-induced IFNA8 gene expression at 30 uM measured after 2 hrs by RT-PCR array (reference value: 425 a.u.); format: functional
Macrophage [20] = assay: Antiinflammatory activity in human primary macrophages assessed as effect on LPS-induced CSF1 gene expression at 30 uM measured after 2 hrs by RT-PCR array (reference value: 287895 a.u.); format: functional
Macrophage [21] = assay: Antiinflammatory activity in human primary macrophages assessed as effect on LPS-induced TXLNA gene expression at 30 uM measured after 2 hrs by RT-PCR array (reference value: 8115 a.u.); format: functional
Macrophage [22] = assay: Antiinflammatory activity in human primary macrophages assessed as effect on LPS-induced IL1B gene expression at 30 uM measured after 2 hrs by RT-PCR array (reference value: 15266918 a.u.); format: functional
Macrophage [23] = assay: Antiinflammatory activity in human primary macrophages assessed as effect on LPS-induced IFNB1 gene expression at 30 uM measured after 2 hrs by RT-PCR array (reference value: 1415030 a.u.); format: functional
Macrophage [24] = assay: Antiinflammatory activity in human primary macrophages assessed as effect on LPS-induced IFNA4 gene expression at 30 uM measured after 2 hrs by RT-PCR array (reference value: 28 a.u.); format: functional

Polyamine deacetylase HDAC10, sequence (Q969S8 whole entry): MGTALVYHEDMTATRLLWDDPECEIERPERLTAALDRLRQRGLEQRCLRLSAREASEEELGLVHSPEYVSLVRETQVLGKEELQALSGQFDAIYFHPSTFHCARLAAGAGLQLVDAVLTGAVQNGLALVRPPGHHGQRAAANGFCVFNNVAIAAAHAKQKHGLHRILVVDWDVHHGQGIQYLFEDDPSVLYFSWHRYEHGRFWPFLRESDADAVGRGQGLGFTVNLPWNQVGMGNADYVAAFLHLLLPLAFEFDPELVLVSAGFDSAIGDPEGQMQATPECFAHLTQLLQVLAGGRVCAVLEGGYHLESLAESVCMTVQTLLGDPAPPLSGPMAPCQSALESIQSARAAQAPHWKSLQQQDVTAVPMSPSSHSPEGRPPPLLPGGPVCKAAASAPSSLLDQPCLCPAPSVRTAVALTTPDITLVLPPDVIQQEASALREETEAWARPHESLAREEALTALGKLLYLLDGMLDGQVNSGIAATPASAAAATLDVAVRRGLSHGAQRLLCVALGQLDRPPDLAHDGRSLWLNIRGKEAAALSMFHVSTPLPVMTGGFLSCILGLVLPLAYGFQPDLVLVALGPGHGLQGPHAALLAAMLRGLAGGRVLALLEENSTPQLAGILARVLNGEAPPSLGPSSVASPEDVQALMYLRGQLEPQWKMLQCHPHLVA
Substance-P receptor, sequence (P25103 whole entry): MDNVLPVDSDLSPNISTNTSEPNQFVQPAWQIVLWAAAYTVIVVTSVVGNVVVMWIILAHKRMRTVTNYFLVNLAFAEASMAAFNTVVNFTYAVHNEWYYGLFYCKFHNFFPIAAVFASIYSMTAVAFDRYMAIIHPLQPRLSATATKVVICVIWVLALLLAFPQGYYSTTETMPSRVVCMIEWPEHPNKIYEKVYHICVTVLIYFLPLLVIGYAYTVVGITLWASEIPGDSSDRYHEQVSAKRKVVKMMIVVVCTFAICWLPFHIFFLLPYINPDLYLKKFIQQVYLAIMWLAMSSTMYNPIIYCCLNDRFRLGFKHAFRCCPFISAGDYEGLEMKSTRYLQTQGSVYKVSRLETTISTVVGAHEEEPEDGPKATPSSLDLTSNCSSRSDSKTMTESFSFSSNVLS
OATP1B1 (SLCO1B1), sequence (Q9Y6L6 whole entry): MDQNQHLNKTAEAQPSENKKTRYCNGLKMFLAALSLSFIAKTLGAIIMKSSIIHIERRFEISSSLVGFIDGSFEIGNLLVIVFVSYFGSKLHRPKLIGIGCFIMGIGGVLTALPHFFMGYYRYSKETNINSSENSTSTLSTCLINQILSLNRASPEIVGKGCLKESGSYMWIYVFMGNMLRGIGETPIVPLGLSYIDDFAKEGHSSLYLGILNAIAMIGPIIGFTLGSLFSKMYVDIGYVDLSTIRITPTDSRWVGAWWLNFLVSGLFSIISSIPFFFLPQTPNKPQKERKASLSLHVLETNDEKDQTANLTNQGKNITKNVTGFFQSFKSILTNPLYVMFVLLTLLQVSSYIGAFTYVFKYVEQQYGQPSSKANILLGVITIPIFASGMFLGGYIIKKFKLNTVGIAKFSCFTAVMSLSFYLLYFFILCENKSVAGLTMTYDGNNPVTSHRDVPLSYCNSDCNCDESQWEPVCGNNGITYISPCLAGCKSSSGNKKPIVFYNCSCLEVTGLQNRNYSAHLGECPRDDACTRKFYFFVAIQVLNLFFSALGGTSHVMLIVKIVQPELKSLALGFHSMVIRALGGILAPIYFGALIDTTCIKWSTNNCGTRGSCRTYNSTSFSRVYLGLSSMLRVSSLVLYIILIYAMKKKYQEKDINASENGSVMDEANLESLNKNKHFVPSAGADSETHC
Histone deacetylase 9, sequence (Q9UKV0 whole entry): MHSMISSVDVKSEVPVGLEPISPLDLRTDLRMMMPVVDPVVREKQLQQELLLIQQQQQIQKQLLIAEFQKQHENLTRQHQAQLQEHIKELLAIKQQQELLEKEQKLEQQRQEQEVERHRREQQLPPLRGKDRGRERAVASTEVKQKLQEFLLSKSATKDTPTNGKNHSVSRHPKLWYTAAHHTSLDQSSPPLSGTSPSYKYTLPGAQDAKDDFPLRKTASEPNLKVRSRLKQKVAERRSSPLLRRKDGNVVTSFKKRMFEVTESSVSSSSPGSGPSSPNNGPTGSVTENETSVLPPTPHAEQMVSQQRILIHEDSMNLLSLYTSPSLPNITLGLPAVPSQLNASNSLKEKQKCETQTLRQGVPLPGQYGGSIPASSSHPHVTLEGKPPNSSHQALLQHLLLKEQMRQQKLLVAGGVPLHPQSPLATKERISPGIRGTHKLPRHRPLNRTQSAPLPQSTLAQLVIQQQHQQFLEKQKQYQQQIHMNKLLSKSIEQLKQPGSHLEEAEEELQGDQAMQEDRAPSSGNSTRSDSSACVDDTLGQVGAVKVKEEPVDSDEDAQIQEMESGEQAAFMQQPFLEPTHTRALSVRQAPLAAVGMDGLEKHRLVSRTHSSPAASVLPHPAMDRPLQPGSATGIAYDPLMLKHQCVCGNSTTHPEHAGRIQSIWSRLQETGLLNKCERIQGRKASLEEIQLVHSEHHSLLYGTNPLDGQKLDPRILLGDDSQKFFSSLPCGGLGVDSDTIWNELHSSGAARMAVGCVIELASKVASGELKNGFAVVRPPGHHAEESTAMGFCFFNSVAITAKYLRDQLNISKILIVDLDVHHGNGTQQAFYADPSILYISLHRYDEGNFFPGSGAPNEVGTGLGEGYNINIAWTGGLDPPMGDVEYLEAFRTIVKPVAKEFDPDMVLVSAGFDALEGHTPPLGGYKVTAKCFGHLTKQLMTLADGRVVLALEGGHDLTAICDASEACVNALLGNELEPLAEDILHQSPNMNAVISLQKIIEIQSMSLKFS
Amine oxidase [flavin-containing] B, sequence (P27338 whole entry): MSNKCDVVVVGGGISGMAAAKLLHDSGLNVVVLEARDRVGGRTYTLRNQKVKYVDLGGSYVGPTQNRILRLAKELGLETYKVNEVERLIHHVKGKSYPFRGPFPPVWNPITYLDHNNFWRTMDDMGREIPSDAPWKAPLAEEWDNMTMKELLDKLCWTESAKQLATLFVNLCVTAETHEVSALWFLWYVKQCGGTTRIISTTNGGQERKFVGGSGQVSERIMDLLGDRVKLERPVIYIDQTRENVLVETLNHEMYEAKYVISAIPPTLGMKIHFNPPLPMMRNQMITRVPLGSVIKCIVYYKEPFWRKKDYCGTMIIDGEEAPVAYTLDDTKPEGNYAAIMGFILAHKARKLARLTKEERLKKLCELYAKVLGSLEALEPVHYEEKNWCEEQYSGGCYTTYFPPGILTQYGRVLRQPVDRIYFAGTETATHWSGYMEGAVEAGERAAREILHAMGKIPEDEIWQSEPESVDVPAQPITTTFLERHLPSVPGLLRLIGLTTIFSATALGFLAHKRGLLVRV
Prolyl hydroxylase EGLN3, sequence (Q9H6Z9 whole entry): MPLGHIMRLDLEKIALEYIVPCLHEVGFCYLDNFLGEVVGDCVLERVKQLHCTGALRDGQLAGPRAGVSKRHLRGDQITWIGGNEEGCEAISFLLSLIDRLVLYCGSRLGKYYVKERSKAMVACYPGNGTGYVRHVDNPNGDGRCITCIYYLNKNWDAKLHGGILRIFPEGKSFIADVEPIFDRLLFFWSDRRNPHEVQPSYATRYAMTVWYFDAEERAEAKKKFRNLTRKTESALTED
Histone deacetylase 11, sequence (Q96DB2 whole entry): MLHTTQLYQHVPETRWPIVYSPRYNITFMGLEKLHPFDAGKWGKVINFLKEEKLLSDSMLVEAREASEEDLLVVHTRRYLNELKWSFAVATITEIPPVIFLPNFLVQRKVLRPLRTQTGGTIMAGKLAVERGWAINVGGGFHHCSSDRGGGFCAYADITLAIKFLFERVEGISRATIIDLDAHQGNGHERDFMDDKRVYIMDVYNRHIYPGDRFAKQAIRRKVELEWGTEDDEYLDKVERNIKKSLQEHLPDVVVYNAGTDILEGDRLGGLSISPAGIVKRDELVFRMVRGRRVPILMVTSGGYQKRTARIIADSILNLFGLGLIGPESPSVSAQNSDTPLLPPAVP
Adenosine receptor A2a, sequence (P29274 whole entry): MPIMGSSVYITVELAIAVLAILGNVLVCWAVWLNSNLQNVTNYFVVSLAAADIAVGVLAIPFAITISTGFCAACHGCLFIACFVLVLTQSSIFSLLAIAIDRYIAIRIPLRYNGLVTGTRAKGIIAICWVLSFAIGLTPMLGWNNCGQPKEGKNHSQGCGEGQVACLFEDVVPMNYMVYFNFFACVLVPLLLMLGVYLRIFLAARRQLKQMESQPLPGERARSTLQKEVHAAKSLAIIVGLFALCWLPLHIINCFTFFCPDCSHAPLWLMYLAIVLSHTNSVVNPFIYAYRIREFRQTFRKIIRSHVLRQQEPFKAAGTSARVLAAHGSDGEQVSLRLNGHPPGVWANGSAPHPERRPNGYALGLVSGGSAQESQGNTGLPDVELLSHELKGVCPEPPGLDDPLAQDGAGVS
Alpha-2C adrenergic receptor, sequence (P18825 whole entry): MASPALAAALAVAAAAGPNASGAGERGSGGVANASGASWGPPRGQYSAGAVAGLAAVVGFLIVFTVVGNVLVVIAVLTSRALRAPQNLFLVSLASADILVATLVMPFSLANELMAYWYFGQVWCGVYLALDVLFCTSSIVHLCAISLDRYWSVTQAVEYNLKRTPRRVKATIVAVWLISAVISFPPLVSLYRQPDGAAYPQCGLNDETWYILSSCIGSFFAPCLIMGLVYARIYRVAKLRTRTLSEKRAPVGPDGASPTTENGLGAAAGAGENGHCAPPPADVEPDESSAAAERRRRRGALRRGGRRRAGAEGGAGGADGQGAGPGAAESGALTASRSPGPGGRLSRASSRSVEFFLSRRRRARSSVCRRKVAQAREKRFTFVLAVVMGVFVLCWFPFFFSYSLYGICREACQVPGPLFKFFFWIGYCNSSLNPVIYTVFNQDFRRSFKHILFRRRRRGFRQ

Structure (SMILES) | XC50 (Histone deacetylase 9) [µM] | XC50 [1] [µM] | XC50 [2] [µM] | XC50 (Prolyl hydroxylase EGLN3) [µM] | XC50 [3] [µM] | XC50 [4] [µM] | XC50 (Histone deacetylase 11) [µM] | XC50 (Mu-type opioid receptor) [µM] | XC50 (Adenosine receptor A2a) [µM] | XC50 (Substance-P receptor) [µM] | XC50 (OATP1B1 (SLCO1B1)) [µM] | XC50 [5] [µM] | IC50 [6] [µM] | XC50 [7] [µM] | XC50 [8] [µM] | XC50 [9] [µM] | XC50 [10] [µM] | XC50 (hERG (KCNH2)) [µM] | Activity (Macrophage [12]) [a.u.] | Activity (Macrophage [13]) [a.u.] | other results
O=C(O)CCNc1cc(N2CCc3ccccc3CC2)nc(-c2cccnc2)n1 | > 300 | > 50 | > 16 | > 50 | > 32 | 40 | > 300 | > 100 | > 32 | > 40 | 20 | > 50 | > 100 | > 16 | > 300 | 25 | > 32 | > 100 | – | – | –
O=C(O)CCNc1cc(N2CCc3ccccc3CC2)nc(-c2ccccn2)n1 | > 300 | > 50 | > 16 | > 50 | > 32 | 100 | > 300 | > 100 | > 32 | > 40 | > 25 | > 50 | 79 | > 16 | > 300 | 25 | > 32 | 32 | – | – | IC50 [11]: > 100 µM
CCOC(=O)CCNc1cc(N2CCc3ccccc3CC2)nc(-c2ccccn2)n1 | – | – | – | – | – | – | – | – | – | – | – | – | – | – | – | – | – | – | 8686 | 4135 | Activity (Macrophage [14]): 233 a.u.; Activity (Macrophage [15]): 10602 a.u.; Activity (Macrophage [16]): 74923 a.u.; Activity (Macrophage [17]): 360 a.u.; Activity (Macrophage [18]): 242914 a.u.; Activity (Macrophage [19]): 1012 a.u.; Activity (Macrophage [20]): 140386 a.u.; Activity (Macrophage [21]): 5959 a.u.; Activity (Macrophage [22]): 3032303 a.u.; Activity (Macrophage [23]): 153760 a.u.; Activity (Macrophage [24]): 25 a.u.
CCOC(=O)CCNc1cc(N2CCc3ccccc3CC2)nc(-c2cccnc2)n1 | – | – | – | – | – | – | – | – | – | – | – | – | – | – | – | – | – | – | 10108 | 24543 | Activity (Macrophage [14]): 2254 a.u.; Activity (Macrophage [15]): 67356 a.u.; Activity (Macrophage [16]): 185197 a.u.; Activity (Macrophage [17]): 33 a.u.; Activity (Macrophage [18]): 1497395 a.u.; Activity (Macrophage [19]): 431 a.u.; Activity (Macrophage [20]): 211785 a.u.; Activity (Macrophage [21]): 6886 a.u.; Activity (Macrophage [22]): 10300355 a.u.; Activity (Macrophage [23]): 1501879 a.u.; Activity (Macrophage [24]): 1 a.u.
